# Experimental data reported in paper PMC5487684, “Safety, Pharmacokinetics, and Antiviral Activity of a Novel HIV Antiviral, ABX464, in Treatment-Naive HIV-Infected Subjects in a Phase 2 Randomized, Controlled Study” (Antimicrobial Agents and Chemotherapy, 2017).
# System: HIV-infected subjects
# Test: Safety and tolerability (TEAEs, ECG, laboratory) after repeated oral administration, phase 2a study
# Type: in vivo, human
# Experimental: Participants were assigned to one of eight groups; each group (with one exception) included eight subjects receiving either ABX464 (n = 6) or the corresponding placebo (n = 2) according to a randomization code. […] In the present study with HIV-infected subjects, the first dose administered was 25 mg, given once or 3 times a day over a 2- to 3-week period. This initial dose was therefore considered safe for assessment of the safety and tolerability of ABX464 after repeated oral administrations in subjects infected by HIV and determination of the potential effect on the HIV viral load.
# The final dosing protocol for each of the eight groups was as follows: group 1, 25 mg every 3 days for 2 to 3 weeks under fasted conditions; group 2, 25 mg once a day (q.d.) for 2 to 3 weeks under fasted conditions; group 3, 50 mg once a day for 2 to 3 weeks under fasted conditions; group 4, 50 mg 3 times a day (t.i.d.) for 4 weeks under fed conditions; group 5, 75 mg once a day for 2 weeks under fed conditions; group 6, 100 mg once a day for 2 to 3 weeks under fasted conditions; group 7, 150 mg every 3 days for 2 to 3 weeks under fed conditions; and group 8, 150 mg once a day for 2 weeks under fed conditions. Per the study protocol, the treatment period was defined as 2 weeks. […] The decision to proceed to the next highest dose was determined by the data and safety monitoring board after review of the laboratory safety data, vital signs, ECGs, and adverse event reports from the group receiving the current dose after 2 weeks of treatment.
# Subjects were hospitalized from the day prior to the first dose to at least the morning of day 2. They were orally dosed with 25-mg capsules of ABX464 with 240 ml water under fed or fasted conditions. According to the group, subjects were dosed with 1, 2, 3, 4, or 6 capsules to deliver 25 mg, 50 mg, 75 mg, 100 mg, or 150 mg product, respectively, or the same number of placebo capsules.
# Safety assessments and laboratory tests were carried out according to the schedules described in Table S4 for groups dosed every day, every 3 days, and 3 times a day. Follow-up visits were scheduled for 7 days after the last dose and subsequently once every week in order to assess the elimination of the main ABX464 metabolite and to assess the viral load. Follow-up visits were terminated when the virus load was within 0.5 log of the baseline value or after 3 follow-up visits, whichever came first. Prior to the statistical analyses, AEs were coded using the Medical Dictionary for Regulatory Activities (MedDRA dictionary; last available version) in order to be tabulated by system organ class (SOC) and preferred term (PT). The AEs were analyzed according to the treatment emergence phase from the first study drug administration on day 1 up to 48 h after the last study drug administration. The number and percentage of subjects with at least one TEAE were tabulated by SOC and PT for each group and dose. The number of occurrences of TEAEs was also analyzed in the same way by SOC and PT for each group and dose, by grade of severity for each group and dose, and by level of causality to the study drug for each group and dose.
# [1] = Group 5 (n = 6), 75 mg q.d., fed, Mild
# [2] = Group 5 (n = 6), 75 mg q.d., fed, Moderate
# [3] = Group 6 (n = 6), 100 mg q.d., fasted, Mild
# [4] = Group 6 (n = 6), 100 mg q.d., fasted, Moderate
# [5] = Group 7 (n = 6), 150 mg every 3 days, fed, Mild
smiles,measurement,setting,value
FC(F)(F)Oc1ccc(Nc2ccc3cccc(Cl)c3n2)cc1 [ABX464],Subjects experiencing at least one TEAE: Arthralgia,[1],0 (0.0) No. (%)
same,Subjects experiencing at least one TEAE: Back pain,[1],0 (0.0) No. (%)
same,Subjects experiencing at least one TEAE: Diarrhea,[1],1 (16.7) No. (%)
same,Subjects experiencing at least one TEAE: Flank pain,[1],0 (0.0) No. (%)
same,Subjects experiencing at least one TEAE: Gastrointestinal disorders,[1],5 (83.3) No. (%)
same,Subjects experiencing at least one TEAE: Headache,[1],5 (83.3) No. (%)
same,"Subjects experiencing at least one TEAE: Injury, poisoning, and procedural complications",[1],0 (0.0) No. (%)
same,Subjects experiencing at least one TEAE: Musculoskeletal and connective tissue disorders,[1],0 (0.0) No. (%)
same,Subjects experiencing at least one TEAE: Nausea,[1],3 (50.0) No. (%)
same,Subjects experiencing at least one TEAE: Neck pain,[1],0 (0.0) No. (%)
same,Subjects experiencing at least one TEAE: Nervous system disorders,[1],5 (83.3) No. (%)
same,Subjects experiencing at least one TEAE: Pain in extremity,[1],0 (0.0) No. (%)
same,"Subjects experiencing at least one TEAE: Sciatica, back pain",[1],0 (0.0) No. (%)
same,Subjects experiencing at least one TEAE: Skin abrasion,[1],0 (0.0) No. (%)
same,Subjects experiencing at least one TEAE: Total,[1],6 (100.0) No. (%)
same,Subjects experiencing at least one TEAE: Upper abdominal pain,[1],0 (0.0) No. (%)
same,Subjects experiencing at least one TEAE: Vomiting,[1],4 (66.7) No. (%)
same,Subjects experiencing at least one TEAE: Abdominal pain,[2],0 (0.0) No. (%)
same,Subjects experiencing at least one TEAE: Arthralgia,[2],0 (0.0) No. (%)
same,Subjects experiencing at least one TEAE: Back pain,[2],0 (0.0) No. (%)
same,Subjects experiencing at least one TEAE: Diarrhea,[2],0 (0.0) No. (%)
same,Subjects experiencing at least one TEAE: Flank pain,[2],0 (0.0) No. (%)
same,Subjects experiencing at least one TEAE: Gastrointestinal disorders,[2],1 (16.7) No. (%)
same,Subjects experiencing at least one TEAE: Headache,[2],0 (0.0) No. (%)
same,"Subjects experiencing at least one TEAE: Injury, poisoning, and procedural complications",[2],0 (0.0) No. (%)
same,Subjects experiencing at least one TEAE: Musculoskeletal and connective tissue disorders,[2],0 (0.0) No. (%)
same,Subjects experiencing at least one TEAE: Nausea,[2],1 (16.7) No. (%)
same,Subjects experiencing at least one TEAE: Neck pain,[2],0 (0.0) No. (%)
same,Subjects experiencing at least one TEAE: Nervous system disorders,[2],0 (0.0) No. (%)
same,Subjects experiencing at least one TEAE: Pain in extremity,[2],0 (0.0) No. (%)
same,"Subjects experiencing at least one TEAE: Sciatica, back pain",[2],0 (0.0) No. (%)
same,Subjects experiencing at least one TEAE: Skin abrasion,[2],0 (0.0) No. (%)
same,Subjects experiencing at least one TEAE: Total,[2],1 (16.7) No. (%)
same,Subjects experiencing at least one TEAE: Upper abdominal pain,[2],0 (0.0) No. (%)
same,Subjects experiencing at least one TEAE: Vomiting,[2],0 (0.0) No. (%)
same,Subjects experiencing at least one TEAE: Abdominal pain,[3],0 (0.0) No. (%)
same,Subjects experiencing at least one TEAE: Arthralgia,[3],0 (0.0) No. (%)
same,Subjects experiencing at least one TEAE: Back pain,[3],0 (0.0) No. (%)
same,Subjects experiencing at least one TEAE: Diarrhea,[3],0 (0.0) No. (%)
same,Subjects experiencing at least one TEAE: Flank pain,[3],0 (0.0) No. (%)
same,Subjects experiencing at least one TEAE: Gastrointestinal disorders,[3],2 (33.3) No. (%)
same,Subjects experiencing at least one TEAE: Headache,[3],5 (83.3) No. (%)
same,"Subjects experiencing at least one TEAE: Injury, poisoning, and procedural complications",[3],0 (0.0) No. (%)
same,Subjects experiencing at least one TEAE: Musculoskeletal and connective tissue disorders,[3],0 (0.0) No. (%)
same,Subjects experiencing at least one TEAE: Nausea,[3],0 (0.0) No. (%)
same,Subjects experiencing at least one TEAE: Neck pain,[3],0 (0.0) No. (%)
same,Subjects experiencing at least one TEAE: Nervous system disorders,[3],5 (83.3) No. (%)
same,Subjects experiencing at least one TEAE: Pain in extremity,[3],0 (0.0) No. (%)
same,"Subjects experiencing at least one TEAE: Sciatica, back pain",[3],0 (0.0) No. (%)
same,Subjects experiencing at least one TEAE: Skin abrasion,[3],0 (0.0) No. (%)
same,Subjects experiencing at least one TEAE: Total,[3],6 (100.0) No. (%)
same,Subjects experiencing at least one TEAE: Upper abdominal pain,[3],2 (33.3) No. (%)
same,Subjects experiencing at least one TEAE: Vomiting,[3],0 (0.0) No. (%)
same,Subjects experiencing at least one TEAE: Abdominal pain,[4],0 (0.0) No. (%)
same,Subjects experiencing at least one TEAE: Arthralgia,[4],0 (0.0) No. (%)
same,Subjects experiencing at least one TEAE: Back pain,[4],0 (0.0) No. (%)
same,Subjects experiencing at least one TEAE: Diarrhea,[4],0 (0.0) No. (%)
same,Subjects experiencing at least one TEAE: Flank pain,[4],0 (0.0) No. (%)
same,Subjects experiencing at least one TEAE: Gastrointestinal disorders,[4],1 (16.7) No. (%)
same,Subjects experiencing at least one TEAE: Headache,[4],0 (0.0) No. (%)
same,"Subjects experiencing at least one TEAE: Injury, poisoning, and procedural complications",[4],0 (0.0) No. (%)
same,Subjects experiencing at least one TEAE: Musculoskeletal and connective tissue disorders,[4],0 (0.0) No. (%)
same,Subjects experiencing at least one TEAE: Nausea,[4],0 (0.0) No. (%)
same,Subjects experiencing at least one TEAE: Neck pain,[4],0 (0.0) No. (%)
same,Subjects experiencing at least one TEAE: Nervous system disorders,[4],0 (0.0) No. (%)
same,Subjects experiencing at least one TEAE: Pain in extremity,[4],0 (0.0) No. (%)
same,"Subjects experiencing at least one TEAE: Sciatica, back pain",[4],0 (0.0) No. (%)
same,Subjects experiencing at least one TEAE: Skin abrasion,[4],0 (0.0) No. (%)
same,Subjects experiencing at least one TEAE: Total,[4],3 (50.0) No. (%)
same,Subjects experiencing at least one TEAE: Upper abdominal pain,[4],1 (16.7) No. (%)
same,Subjects experiencing at least one TEAE: Vomiting,[4],0 (0.0) No. (%)
same,Subjects experiencing at least one TEAE: Abdominal pain,[5],0 (0.0) No. (%)
same,Subjects experiencing at least one TEAE: Arthralgia,[5],1 (16.7) No. (%)
same,Subjects experiencing at least one TEAE: Back pain,[5],0 (0.0) No. (%)
same,Subjects experiencing at least one TEAE: Diarrhea,[5],0 (0.0) No. (%)
